Experimental data published in US20080045547A1, “Salts And Co-Crystals of Pyrazolopyrimidine Compounds, Compositions Thereof And Methods For Their Production And Use” (priority 2006, published 2008).
Values joined by “and” are separate entries in the source; they are usually repeats but may differ in a detail not shown here. Equal entries are not always repeated. “Also recorded” adds a separate entry of the source. Structures can show the parent of a compound that is named as a salt.

How the values were obtained:
[1] = Equilibrium aqueous solubility from solid; assay type: physicochemical; settings: H20, room temperature overnight; for solubility: water, thermodynamic from solid
Experimental: Samples of the ocinaplon salts shown above were evaluated for equilibrium aqueous solubility from solid. Duplicate samples of ocinaplon were accurately weighed and diluted to 1 ml with water to 6.83 mg/ml and 6.43 mg/ml. Duplicate samples of Ocinaplon di HCl salt were accurately weighed and diluted to 1 ml with water to 5.5 mg/ml and 6.0 mg/ml. Ocinaplon di HBr salt was accurately weighed and diluted to 1 ml with water to 6.1 mg/ml and 5.8 mg/ml. Ocinaplon disulfate salt was accurately weighed and diluted to 1 ml with water to 7.5 mg/ml and 6.5 mg/ml. Any change in pH of the water following sample addition was recorded. After equilibration at room temperature overnight the solutions were filtered and solute concentration determined by fast gradient HPLC with UV/VIS/MS detection with reference to 5, 10, 50, 100 and 250 μM analytical standards. Prior to sample filtration, filters were primed with 600 μl of sample to resolve potential adsorption problems. Both sample replicates were collected through the primed filter. Duplicate determinations were made in all cases.

[2] = Pharmacokinetics of different salt forms of ocinaplon after a single oral dose; assay type: in vivo; settings: male beagle dogs; for Tmax / half-life / AUC(0-inf) / AUC(0-t) / Cmax: dog, plasma, single oral dose 30 mg Base/kg, 0.5% methylcellulose suspension, mean (CV %), N = 5; for Cmax of ocinaplon relative to an equivalent amount of the free base / AUC of ocinaplon relative to an equivalent amount of the free base / variability in plasma levels of ocinaplon compared to the free base / variability in the AUC (CV %) compared to the free base: oral 30 mg free base/kg; for AUC(0-inf) / AUC(0-t) / Cmax: male, beagle, po
Experimental: The test compounds were prepared in 0.5% methylcellulose. The target concentrations of the free base and HBr salt were 1.0 and 1.34 mg/mL (equivalent to 1 mg of the free base), respectively. The liquid suspensions were administered via oral gavage. Prior to removing the gavage tube, the tube was flushed with approximately 5 mL of water.
Blood (approximately 2 mL) was collected from a jugular vein via syringe and needle and transferred into tubes containing K2EDTA anticoagulant predose and at 0.5, 1, 2, 3, 4, 6, 8, 12, and 24 hours postdose. Blood was maintained on wet ice, in chilled Kryoracks, or at approximately 5° C. prior to centrifugation to obtain plasma. Centrifugation began within 1 hour of collection. Plasma was placed on dry ice prior to storage at approximately −70° C. Plasma samples, remaining test compounds, and remaining dose formulations were shipped on dry ice to the analysis site and stored at approximately −70° C. before and after analysis. Samples were analyzed using an LC/MS/MS method. Plasma concentration-time data for each dog and formulation were analyzed using a noncompartmental model assumption with WinNonlin, version 4.1 (Pharsight Corporation, Mountain View, Calif.). All calculations were based on the nominal times as actual sample collection times departed minimally from the schedule times.
The pharmacokinetic parameters of different pyrazolopyrimidine acid salts vary in an apparently salt and compound dependent fashion. This is illustrated by a comparison of the pharmacokinetic properties of different acid salts of the pyrazolopyrimidine, ocinaplon. This study was performed in a manner similar to the study described in Example 9 hereinabove. The concentrations of the HCl, HBr and disulfate salts of ocinaplon were 3.72 mg/mL, 4.61 mg/mL and 4.95 mg/mL, respectively. All concentrations were calculated to be 3.0 mg free base/mL; the dose volume was […]. […] […] These findings exemplify and underscore the differences in pharmacokinetic profiles among these three exemplary salts of ocinaplon.

Row | Compound | Equilibrium Aqueous Solubility from Solid [1] | Tmax ([2]; 30 mg/kg) [min] | half-life ([2]; 30 mg/kg) [min] | Cmax of ocinaplon relative to an equivalent amount of the free base [2] | AUC(0-inf) ([2]; 30 mg/kg) [ng·h/mL] | AUC(0-t) ([2]; 30 mg/kg) [ng·h/mL] | Cmax ([2]; 30 mg/kg) [ng/mL] | solubility [1] | AUC of ocinaplon relative to an equivalent amount of the free base [2] | variability in plasma levels of ocinaplon compared to the free base [2] | variability in the AUC (CV %) compared to the free base [2] | AUC(0-t) ([2]; 30 mg Base/kg) [ng·h/mL]
1 | O=C(c1ccccn1)c1cnn2c(-c3ccncc3)ccnc12 [Ocinaplon disulfate salt] | 10.6 mM and 5.3 mg/ml | 48 | 57 | more than two-fold | 46400 | 46300 | 14800 | – | – | – | – | –
2 | Cl.Cl.O=C(c1ccccn1)c1cnn2c(-c3ccncc3)ccnc12 [Ocinaplon di HCl salt] | – | 66 | 63 | more than two-fold | 57300 | 57100 | 15000 | 12600 µM and 4700 µg/mL | almost twice as high | lower variability | much less variability | –
3 | Br.Br.O=C(c1ccccn1)c1cnn2c(-c3ccncc3)ccnc12 [Ocinaplon di HBr] | – | 54 | 49.8 | more than two-fold; also recorded: approximately twice | 38100 | – | 13600 | 11500 µM and 5300 µg/mL | did not differ | lower variability | dramatically less | 38000
